# From patent US20220259235A1, “EGFR Inhibitor, Composition, and Preparation Method Therefor” (BETTA PHARMACEUTICALS CO., LTD, priority 2019, published 2022)
# Like-named read-outs stand apart in the source and are kept apart here.
# Legend:
# EGFR Δ19del/T790M/C797S = EGFR Δ19del/T790M/C797S (Homo sapiens, UniProt P00533, T790M/C797S, form not given); assay: EGFR Δ19del/T790M/C797S kinase test (mobility shift, Caliper EZ Reader); assay type: biochemical; settings: kinase enzymatic activity
# Method: Mobility variation analysis was performed to determine the affinity of the compound for EGFRΔ19del/T790M/C797S. The enzymatic reaction scheme is as follows:
# 1. Prepare 1* kinase buffer as follows:
# 2. Preparation of compound concentration gradient: The test compound was tested with an initial concentration of 3000 nM or 100 nM, diluted in a 384 source plate to a 100% DMSO solution with 100-fold final concentration, and the compound is 3-fold diluted with Precision to 10 concentrations. A dispenser Echo 550 was used to transfer 250 nL 100-fold final concentration of the compound to the target plate OptiPlate-384F.
# 3. Prepare 2.5-fold final concentration of kinase solution with 1×Kinase buffer;
# 4. Add 10 μL of 2.5-fold final concentration of kinase solution to the compound well and the positive control well; add 10 μL of 1×Kinase buffer to the negative control well.
# 5. Centrifuge at 1000 rpm for 30 seconds, shake the reaction plate for well mixation, and then incubate at room temperature for 10 minutes.
# 6. Prepare a mixture of ATP and Kinase substrate at 5/3-fold final concentration with 1×Kinase buffer.
# 7. Add 15 μL mixture of 5/3-fold final concentration of ATP and substrate to start reaction.
# 8. Centrifuge the 384-well plate at 1000 rpm for 30 seconds, shake it well and then incubate it at room temperature for corresponding time.
# 9. Add 30 μL of stop detection solution to stop the kinase reaction, centrifuge at 1000 rpm for 30 seconds, shake it well.
# 10. Read conversion rate with Caliper EZ Reader.
# % Inhibition=((Conversion%_max−Conversion%_sample)/(Conversion%_max−Conversion%_min))*100
# Wherein: Conversion%_sample is the sample conversion rate reading; Conversion%_min: Mean value of negative control wells, representing the conversion rate reading of wells without enzymatic activity; Conversion%_max: Mean value of positive control wells, representing the conversion rate reading of wells without compound inhibition.
# The dose-effect curve was fitted with concentration log value as X-axis and percentage inhibition rate as Y-axis. Log (inhibitor) vs. Response—Variable Slope of GraphPad Prism 5 was used to fit the dose-effect curve to obtain IC50 value of enzymatic activity for each compound.
# The calculation formula is as Y=Bottom (Top−Bottom)/(1+10^((LogIC50−X)*HillSlope)).
# As illustrated in examples, IC50 value is within the following range for the compound of the present invention: “A” represents “IC50≤1nM”; “B” represents “1 nM<IC50≤100nM”.
# Ba/F3-L858R/T790M/C797S = Ba/F3-L858R/T790M/C797S (Homo sapiens, UniProt P00533, T790M/C797S/L858R, cells depend on it); assay: Ba/F3-L858R/T790M/C797S cell proliferation assay (CellTiter Glo, 72 h); assay type: cell-based; settings: CTG, read-out: BaF3 L858R/T790M/C797S IC50
# Chain of Ba/F3-L858R/T790M/C797S (P00533 whole entry T790M/C797S/L858R): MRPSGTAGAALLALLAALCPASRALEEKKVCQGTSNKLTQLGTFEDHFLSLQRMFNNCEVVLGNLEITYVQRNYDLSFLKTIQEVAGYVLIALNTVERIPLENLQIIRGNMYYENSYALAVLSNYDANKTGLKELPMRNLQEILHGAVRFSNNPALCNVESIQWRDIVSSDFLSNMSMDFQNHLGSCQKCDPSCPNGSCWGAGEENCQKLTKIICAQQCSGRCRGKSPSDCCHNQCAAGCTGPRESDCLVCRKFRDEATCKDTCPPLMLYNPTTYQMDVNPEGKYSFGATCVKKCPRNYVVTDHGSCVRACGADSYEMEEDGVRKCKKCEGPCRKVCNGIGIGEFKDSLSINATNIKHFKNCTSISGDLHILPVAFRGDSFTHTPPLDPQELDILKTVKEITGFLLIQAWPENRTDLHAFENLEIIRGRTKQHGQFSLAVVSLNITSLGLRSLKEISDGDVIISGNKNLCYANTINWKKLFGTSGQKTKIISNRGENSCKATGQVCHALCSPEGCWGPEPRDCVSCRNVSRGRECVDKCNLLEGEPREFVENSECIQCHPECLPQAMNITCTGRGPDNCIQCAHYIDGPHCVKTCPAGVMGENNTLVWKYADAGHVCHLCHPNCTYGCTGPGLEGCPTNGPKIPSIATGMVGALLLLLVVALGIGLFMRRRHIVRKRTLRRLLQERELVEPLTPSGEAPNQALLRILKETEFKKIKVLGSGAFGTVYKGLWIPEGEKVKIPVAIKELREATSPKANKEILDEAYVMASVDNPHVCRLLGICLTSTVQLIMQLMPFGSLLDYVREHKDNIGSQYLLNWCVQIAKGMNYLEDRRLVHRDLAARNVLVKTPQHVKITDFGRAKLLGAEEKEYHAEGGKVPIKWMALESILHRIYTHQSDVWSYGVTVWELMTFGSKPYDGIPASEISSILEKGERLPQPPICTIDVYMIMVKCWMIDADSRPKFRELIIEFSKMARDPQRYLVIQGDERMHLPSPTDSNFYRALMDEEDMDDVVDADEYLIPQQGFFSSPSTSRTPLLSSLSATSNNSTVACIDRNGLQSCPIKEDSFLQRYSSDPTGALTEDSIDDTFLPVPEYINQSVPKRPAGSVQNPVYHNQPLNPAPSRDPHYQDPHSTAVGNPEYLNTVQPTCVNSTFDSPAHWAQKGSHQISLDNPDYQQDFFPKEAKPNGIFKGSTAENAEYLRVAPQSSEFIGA
# Method: (§1) Cell line: Ba/F3 cells with stable overexpression of Δ19del/T790M/C797S or L858R/T790M/C797S mutant genes, named Ba/F3-Δ19del/T790M/C797S and Ba/F3-L858R/T790M/C797S, and A431 EGFR wild-type cell line.
# (§2) RPMI 1640 and 10% FBS and 1% PS; _EM, 10% PBS and 1% PS
# (§3) a) Dilute the test compound (20 mM stock solution) to 10 mM with 100% DMSO as the starting concentration, and then serially dilute 3 times with a “9+0” concentration in 96-well dilution plate (Cat #P-05525, Labcyte);
# (§4) b) Dilute compound solution thereof to 1:100 in medium to prepare 10-fold working solution;
# (§5) a) Centrifuge the growth cells in logarithmic phase at 1000 rpm for 5 minutes, resuspend the cells in culture medium, and then count the cells;
# (§6) b) Inoculate the cells into a 96-well cell culture plate with a density of 2000 cells/well;
# (§7) a) The compound prepared in Step 2 was added to a cell plate with 15 μL per well at final concentrations of 1000, 333, 111.1, 37, 12.3, 4.1, 1.4, 0.5, 0.2, and 0 nM. The final concentration of DMSO was 0.1%. The blank control well is with medium (0.1% DMSO).
# (§8) b) Incubate cells in an incubatorother 72 hours;
# (§9) a) Take out the 96-well cell culture plate and add 50 μl CTG reagent (CellTiter Glo kit, promega, Cat #G7573);
# (§10) b) Shake the plate for 2 minutes and let cool at room temperature for 10 minutes,
# (§11) c) Read luminous signal value with Perkin Elmer reader.
# (§12) Analysis of Experimental Data
# (§13) The data were analyzed by GraphPad Prism 6.0 software to obtain the fitting curve of compound activity.
# (§14) Fining compound IC50 from nonlinear regression equation:
# (§15) Y=Min+(Max−Min)/(1+10^((LogIC50−X)*slope));
# (§16) X: Logarithm of compound concentration; Y: luminous signal
# (§17) As illustrated in examples, IC50 value is within the following range for the compound of the present invention: “A” represents “IC50≤50 nM”; “B” represents “50 nM<IC50<100 nM”.
# [1] = test system: A431 EGFR wild-type cell line; assay: A431 EGFR wild-type cell proliferation assay (CellTiter Glo, 72 h); assay type: cell-based; settings: Homo sapiens, A-431, CTG, read-out: A431 EGFR WT IC50
# Method: as §1, §2, §3, §4, §5, §6, §7, §8, §9, §10, §11, §12, §13, §14, §15, §16, §17
# Ba/F3-Δ19del/T790M/C797S = Ba/F3-Δ19del/T790M/C797S (Homo sapiens, UniProt P00533, T790M/C797S, cells depend on it, form not given); assay: Ba/F3-Δ19del/T790M/C797S cell proliferation assay (CellTiter Glo, 72 h); assay type: cell-based; settings: CTG, read-out: BaF3 Δ19del/T790M/C797S IC50
# Chain of Ba/F3-Δ19del/T790M/C797S (P00533 with tags, fused parts or gaps DEL746-750/T790M/C797S, form open): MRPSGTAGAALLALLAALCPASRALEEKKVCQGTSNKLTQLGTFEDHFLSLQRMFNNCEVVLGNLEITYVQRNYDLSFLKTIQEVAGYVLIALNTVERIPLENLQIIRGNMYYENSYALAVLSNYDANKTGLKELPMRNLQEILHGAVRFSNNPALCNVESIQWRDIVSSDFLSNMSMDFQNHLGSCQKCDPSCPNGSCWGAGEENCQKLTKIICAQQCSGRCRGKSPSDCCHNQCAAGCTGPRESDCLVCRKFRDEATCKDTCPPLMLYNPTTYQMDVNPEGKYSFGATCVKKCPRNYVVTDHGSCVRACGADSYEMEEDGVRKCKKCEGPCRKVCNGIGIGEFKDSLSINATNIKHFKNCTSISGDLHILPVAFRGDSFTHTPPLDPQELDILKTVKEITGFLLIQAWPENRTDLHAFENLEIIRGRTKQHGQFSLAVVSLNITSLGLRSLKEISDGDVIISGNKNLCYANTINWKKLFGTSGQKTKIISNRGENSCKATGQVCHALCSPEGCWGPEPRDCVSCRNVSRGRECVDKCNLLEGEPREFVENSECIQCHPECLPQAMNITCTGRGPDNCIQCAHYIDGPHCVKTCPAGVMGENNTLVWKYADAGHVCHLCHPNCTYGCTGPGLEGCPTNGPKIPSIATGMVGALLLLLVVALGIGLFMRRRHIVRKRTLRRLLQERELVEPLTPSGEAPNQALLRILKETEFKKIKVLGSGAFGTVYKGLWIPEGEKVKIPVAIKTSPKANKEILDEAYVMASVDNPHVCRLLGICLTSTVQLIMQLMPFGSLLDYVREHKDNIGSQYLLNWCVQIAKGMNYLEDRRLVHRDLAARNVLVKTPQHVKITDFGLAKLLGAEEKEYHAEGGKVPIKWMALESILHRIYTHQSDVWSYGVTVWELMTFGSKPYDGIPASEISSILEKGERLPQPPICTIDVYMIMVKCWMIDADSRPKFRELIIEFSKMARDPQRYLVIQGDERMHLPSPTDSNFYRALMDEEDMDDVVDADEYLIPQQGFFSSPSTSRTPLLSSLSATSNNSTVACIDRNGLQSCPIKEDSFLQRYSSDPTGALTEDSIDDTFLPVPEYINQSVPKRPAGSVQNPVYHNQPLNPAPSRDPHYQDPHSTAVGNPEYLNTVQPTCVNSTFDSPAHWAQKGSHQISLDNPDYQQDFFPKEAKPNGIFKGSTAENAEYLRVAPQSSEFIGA
# Method: as §1, §2, §3, §4, §5, §6, §7, §8, §9, §10, §11, §12, §13, §14, §15, §16, §17
# Chain of EGFR Δ19del/T790M/C797S (P00533 with tags, fused parts or gaps DEL746-750/T790M/C797S, form open): as above
SMILES,IC50 (EGFR Δ19del/T790M/C797S; numeric values),GI50 (Ba/F3-L858R/T790M/C797S; numeric values),IC50 [1],GI50 (Ba/F3-Δ19del/T790M/C797S; numeric values),IC50 (EGFR Δ19del/T790M/C797S; class symbols),GI50 (Ba/F3-L858R/T790M/C797S; class symbols),GI50 (Ba/F3-Δ19del/T790M/C797S; class symbols)
COc1cc(N2CCC(N(C)C)CC2)c(-c2cnn(C)c2)cc1Nc1ncc(Cl)c(Nc2ccc3nccnc3c2P(C)(C)=O)n1 [Compound 2],0.2 nM,18.3 nM,110 nM,6.5 nM,–,–,–
CCn1cc(-c2cc(Nc3ncc(Br)c(Nc4ccc5nccnc5c4P(C)(C)=O)n3)c(OC)cc2N2CCC(N3CCN(C)CC3)CC2)cn1 [Compound 19],0.3 nM,1.3 nM,135 nM,1 nM,–,–,–
COc1cc(N2CCOCC2)c(-c2cnn(C)c2)cc1Nc1ncc(Br)c(Nc2ccc3nccnc3c2P(C)(C)=O)n1 [Compound 16],–,–,–,–,≤ 1 nM,≤ 50 nM,≤ 50 nM
"COc1cc(N2CCN(C3CCCC3)CC2)c(-c2cnn(C)c2)cc1Nc1ncc(Br)c(Nc2ccc3nc(C4CC4)ccc3c2P(C)(C)=O)n1 [Compound 27, (6-((5-Bromo-2-((4-(4-cyclopentylpiperazine-1-yl)-2-methoxy-5-(1-methyl-1H-pyrazole-4-Yl)phenyl)amino)pyrimidin-4-yl)amino)-2-cyclopropylquinolin-5-yl)dimethylphosphine oxide]",1.3 nM,8.7 nM,1170 nM,–,–,–,–
CCn1cc(-c2cc(Nc3ncc(Br)c(Nc4ccc(C)c(C)c4P(C)(C)=O)n3)c(OC)cc2N2CCC(N3CCCCC3)CC2)cn1 [Compound 20],0.2 nM,0.4 nM,152 nM,0.7 nM,–,–,–
"COc1cc(N2CCN3CCCC[C@@H]3C2)c(-c2cnn(C)c2)cc1Nc1ncc(Cl)c(Nc2ccc(C)c(C)c2P(C)(C)=O)n1 [Compound 8, (R)-(6-((5-chloro-2-((2-methoxy-5-(1-methyl-1H-pyrazol-4-yl)-4-(octahydro-2hydro-Pyridine[1,2-a]pyrazine-2-yl)phenyl)amino)pyrimidine-4-yl)amino)-2,3-dimethylphenyl)dimethylphosphine oxide]",–,–,–,–,≤ 1 nM,≤ 50 nM,≤ 50 nM
"COc1cc(N2CCC(N(C)C)CC2)c(-c2cnn(C)c2)cc1Nc1ncc(Cl)c(Nc2ccc(C)c(C)c2P(C)(C)=O)n1 [Compound 4, (6-((5-Chloro-2-((4-(4-(dimethylamino)piperidine-1-yl)-2-methoxy-5-(1-methyl-1H-pyrazole-4-yl)phenyl)amino)pyrimidine-4-yl)amino)-2,3-dimethylphenyl)dimethylphosphine oxide]",–,14.9 nM,192 nM,10.2 nM,≤ 1 nM,–,–
COc1cc(N2CCC3(CC2)CN(C)C3)c(-c2cnn(C)c2)cc1Nc1ncc(Cl)c(Nc2ccc(C)c(C)c2P(C)(C)=O)n1 [Compound 7],–,–,–,–,1 to 100 nM,50 to 100 nM,50 to 100 nM
COc1cc(N2CCC(N3CCCCC3)CC2)c(-c2cnn(C)c2)cc1Nc1ncc(Br)c(Nc2ccc(C3CC3)c(C)c2P(C)(C)=O)n1 [Compound 13],–,–,–,–,≤ 1 nM,≤ 50 nM,≤ 50 nM
COc1cc(N2CCC(N3CCN(C)CC3)CC2)c(-c2cnn(C)c2)cc1Nc1ncc(Br)c(Nc2ccc3nccnc3c2P(C)(C)=O)n1 [Compound 10],–,–,–,–,≤ 1 nM,≤ 50 nM,≤ 50 nM
COc1cc(N2CCC(N3CCN(C)CC3)CC2)c(-c2cnn(C)c2)cc1Nc1ncc(Br)c(Nc2ccc(C3CC3)c(C)c2P(C)(C)=O)n1 [Compound 12],–,–,–,–,≤ 1 nM,≤ 50 nM,≤ 50 nM
"COc1cc(N2CCC(N3CCN(C)CC3)CC2)c(-c2cnn(C)c2)cc1Nc1ncc(Br)c(Nc2ccc(C)c(C)c2P(C)(C)=O)n1 [Compound 14, (6-((5-Bromo-2-((2-methoxy-5-(1-methyl-1h-pyrazol-4-yl)-4-(4-(4-methylpiperazine-1-yl)piperidine-1-yl)phenyl)amino)pyrimidine-4-yl)amino)-2,3-dimethylphenyl)dimethylphosphine oxide]",–,–,–,–,≤ 1 nM,≤ 50 nM,≤ 50 nM
"COc1cc(N2CCC(N3CCCCC3)CC2)c(-c2cnn(C)c2)cc1Nc1ncc(Br)c(Nc2ccc3nccnc3c2P(C)(C)=O)n1 [Compound 11, (6-((2-((4-([1,4′-Bipiperidine]-1′-yl)-2-methoxy-5-(1-methyl-1H-pyrazole-4-yl)phenyl)amino)-5-bromopyrimidin-4-yl)amino)quinoxalin-5-yl)dimethylphosphine oxide]",–,–,–,–,≤ 1 nM,≤ 50 nM,≤ 50 nM
"CCn1cc(-c2cc(Nc3nccc(Nc4ccc(C)c(C)c4P(C)(C)=O)n3)c(OC)cc2N2CCOCC2)cn1 [Compound 23, (6-(2-(5-((1-Ethyl-1hydro-pyrazol-4-yl)-2-methoxy-4-morpholinophenyl)amino)pyrimidine-4-amino)-2,3dimethylphenyl) dimethylphosphine oxide]",1.4 nM,–,–,–,–,–,–
CCn1cc(-c2cc(Nc3ncc(Br)c(Nc4ccc5nc(C6CC6)ccc5c4P(C)(C)=O)n3)c(OC)cc2N2CCOCC2)cn1 [Compound 24],17 nM,–,–,–,–,–,–
"COc1cc(N2CCC(N3CCCCC3)CC2)c(-c2cnn(C)c2)cc1Nc1ncc(Br)c(Nc2ccc(C)c(C)c2P(C)(C)=O)n1 [Compound 15, (6-((2-((4-([1,4′-Bipiperidine]-1′-yl)-2-methoxy-5-(1-methyl-1H-pyrazole-4-yl)phenyl)amino)-5-bromopyrimidine-4-yl)amino)-2,3-dimethylphenyl)dimethylphosphine oxide]",–,–,–,–,≤ 1 nM,≤ 50 nM,≤ 50 nM
COc1cc(N2CCC(N3CCCC3)CC2)c(-c2cnn(C)c2)cc1Nc1ncc(Cl)c(Nc2ccc(C)c(C)c2P(C)(C)=O)n1 [Compound 6],–,–,–,–,≤ 1 nM,≤ 50 nM,≤ 50 nM
